Test results published in patent publication EP0652009A1, “Identification and use of protease inhibitors” (ELI LILLY AND COMPANY, priority 1993, dated 1995).
Non-standard residues stand in square brackets, D forms with d. Residues, ends and D or L forms follow the SMILES beside them. Sta = CC(C)C[C@H](N)[C@@H](O)CC(=O)O; N(iPr)Gly = CC(C)NCC(=O)O

Legend:
βAP production = assay: Assay 4: βAP production inhibition (cellular assay, ELISA of conditioned media, normalised to MTT); format: cell-based, human; Chinese hamster; conditions: compound at 10 µg/mL; 293 751 SWE and CHO 751 SWE cells (table does not say which); βAP ELISA divided by MTT result, relative to drug-free control; mean and standard deviation of at least six replicate assays
Description: The test system used to measure the βAP production inhibition activity is typically a cellular assay or an animal model. Preferably, the βAP production inhibition activity is obtained by direct measurement of βAP production in a cellular assay, as described in WO9410569, the full disclosure of which is incorporated herein by reference. This assay is exemplified in Assay 4, below.
Two cell lines (human kidney cell line 293 and Chinese hamster ovary cell line CHO) were stably transfected with the gene for APP-751 containing the double mutation Lys₆₅₁-Met₆₅₂ to Asn₆₅₁-Leu₆₅₂ (APP-751 numbering) commonly called the Swedish mutation using the method described in Citron et al., (1992) Nature 360:672-674. The transfected cell lines were designated as 293 751 SWE and CHO 751 SWE, and were plated in Corning 96 well plates at 2.5x10⁴ or 1x10⁴ cells per well respectively in Dulbecco's minimal essential media plus 10% fetal bovine serum. Following overnight incubation at 37°C in an incubator equilibrated with 10% carbon dioxide (CO₂), the media were removed and replaced with 200 µL per well of media containing an aspartyl protease inhibitor. After a two hour pretreatment period, the media were again removed and replaced with fresh media containing the aspartyl protease inhibitor and the cells were incubated for an additional two hours.
After treatment, plates were centrifuged in a Beckman GPR at 1200 rpm for five minutes at room temperature to pellet cellular debris from the conditioned media. From each well, 100µL of conditioned media were transferred into an ELISA plate precoated with antibody 266 against βAP-13-28 (Seubert et al., supra.) and stored at 4°C overnight. An ELISA assay employing labelled antibody 6C6 (against βAP-1-16) was run the next day to measure the amount of βAP produced.
Cytotoxic effects of the compounds were measured by a modification of the method of Hansen et al., (1989) J. Immun. Meth. 119:203-210. To the cells remaining in the tissue culture plate, was added 25 µL of a 3,(4,5-dimethylthiazol-2-yl)2,5-diphenyltetrazolium bromide (MTT) stock solution (5 mg/mL) to a final concentration of 1 mg/mL. Cells were incubated at 37°C for one hour, and cellular activity was stopped by the addition of an equal volume of MTT lysis buffer (20% w/v sodium dodecylsulfate in 50% DMF, pH 4.7). Complete extraction was achieved by overnight shaking at room temperature. The difference in the OD562nm and the OD650nm was measured in a Molecular Devices UVmax microplate reader as an indicator of the cellular viability.
The results of the βAP ELISA were fit to a standard curve and expressed as ng/mL βAP peptide. In order to normalize for cytotoxicity, these βAP results were divided by the MTT results and expressed as a percentage of the results from a drug-free control.
The compounds prepared above in Examples 9, 12, 13, 20-23, 23A, 24, 30, 41-43, 45, and 48 were assayed for βAP production inhibition activity in cells at 10 µg/mL using Assay 4. The results presented in Assay Table 4, below, are the mean and standard deviation of at least six replicate assays. Assay Table 4

Human liver cathepsin D = Human liver cathepsin D (Homo sapiens, UniProt P07339); assay: Assay 2: cathepsin D inhibition activity (non-cellular fluorometric assay); format: biochemical; set-up: Human liver cathepsin D (Athens Research and Technology, Athens, GA); purchased Athens Research and Technology, Athens, GA; conditions: compound at 10 µg/mL; percent inhibition of control activity; mean and standard deviation of at least four replicate assays
Sequence of Human liver cathepsin D (P07339 169-412 limits assumed): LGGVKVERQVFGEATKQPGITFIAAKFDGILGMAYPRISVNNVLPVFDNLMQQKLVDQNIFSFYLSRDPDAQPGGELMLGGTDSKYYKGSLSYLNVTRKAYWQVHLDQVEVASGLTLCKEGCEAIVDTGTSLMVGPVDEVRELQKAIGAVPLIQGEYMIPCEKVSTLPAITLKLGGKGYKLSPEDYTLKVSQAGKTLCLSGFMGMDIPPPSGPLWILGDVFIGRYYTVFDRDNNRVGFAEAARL
Sequence of Human liver cathepsin D (P07339 65-162 limits assumed): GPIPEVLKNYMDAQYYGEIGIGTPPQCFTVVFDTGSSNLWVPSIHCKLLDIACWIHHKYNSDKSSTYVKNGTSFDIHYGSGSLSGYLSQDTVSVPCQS
Protocol: A second non-cellular assay for determining in vitro aspartyl protease inhibitory activity utilizes a microtiter plate, where a suitable aspartyl protease, such as cathepsin D is added to each well together with controls. A suitable fluorometric substrate is added to each well. The resultant reaction mixture is allowed to react for a preselected time, e.g., 30 minutes. After enzyme activity is terminated, the substrate or its product may be determined fluorometrically and then the protease inhibition activity may be calculated based on the rates of substrate turnover. This assay is exemplified in Assay 2, below.
A fluorometric assay was adapted from the method disclosed by Murakami et al., (1981) Anal. Biochem. 110:232-239 for measuring renin activity. Human liver cathepsin D (Athens Research and Technology, Athens, GA) was diluted in assay buffer, 200mM NaOAc, pH 4.5, 150mM NaCl to 500 ng/mL and then 100 µL of this cathepsin D solution was added to each well of a 96 well plate with the exception of control wells which received just 100 µL of assay buffer. Compound stocks were prepared by dissolving an aspartyl protease inhibitor in DMSO for each concentration tested in the assay and then 5 µL of compound stock was added to each of the wells prepared above. Blank and enzyme control wells each received 5 µL of the DMSO vehicle.
Following a ten minute incubation at 25°C to allow enzyme/compound interaction, 5 µL of 500µM fluorometric substrate (Suc-Arg-Pro-Phe-His-Leu-Leu-Val-Try-AMC [SEQ ID NO:4], Bachem Biosciences, Philadelphia, PA) in DMSO was added per well to initiate the reaction. After incubation at 37°C for 30 minutes, cathepsin D activity was terminated by the addition of 100 µL per well of 400 mU/mL microsomal leucine aminopeptidase (EC 3.4.11.2, Sigma, St. Louis, MO) in 1M Tris-HCl, pH 8.0.
The plates were then analyzed in a fluorometer (CytoFluor 2350, Millipore, Bedford, MA) with an excitation wavelength of 360nm and an emission wavelength of 460nm, in order to check for background fluorescence due to test compounds. Following a two hour incubation at 37°C, to allow the aminopeptidase to release the fluorophore, 7-amido-4-methylcoumarin (AMC) from the products of cathepsin D cleavage, the plates were again analyzed in the fluorometer. In order to check for potential false positives, i.e., inhibitors of microsomal leucine aminopeptidase, residual aminopeptidase activity was monitored directly in each well by the addition of 20 µL/well of 2.5mM Leu-pNA (Bachem Biosciences, Philadelphia, PA) in 10% DMSO. Aminopeptidase activity was measured as an increase in the absorbance at 405nm in a UVmax microplate reader (Molecular Devices, Menlo Park, CA).
The compounds prepared in Examples 9, 12, 13, 20-23, 23A, 24, 30, 41-43, 45, and 48 were assayed at 10 µg/mL for cathepsin D inhibition activity using Assay 2. Cathepsin D activity was linear under these conditions and the results are expressed as percent inhibition of the control activity in Assay Table 2, below. All results presented are the mean and standard deviation of at least four replicate assays. Assay Table 2

Human brain cathepsin D = molecular target: T1, Human brain cathepsin D (Homo sapiens, UniProt P07339); assay: Assay 1: cathepsin D inhibition activity (non-cellular assay, porcine renin tetradecapeptide substrate, RP-HPLC); format: biochemical; conditions: purified human brain cathepsin D, pH 4.5, 44 µM porcine renin tetradecapeptide, 37°C
T1 construct: Human brain cathepsin D was purified from frozen post-mortem cortex; from tissue; host or cells: human post-mortem brain cortex
T1 sequence (P07339 65-412): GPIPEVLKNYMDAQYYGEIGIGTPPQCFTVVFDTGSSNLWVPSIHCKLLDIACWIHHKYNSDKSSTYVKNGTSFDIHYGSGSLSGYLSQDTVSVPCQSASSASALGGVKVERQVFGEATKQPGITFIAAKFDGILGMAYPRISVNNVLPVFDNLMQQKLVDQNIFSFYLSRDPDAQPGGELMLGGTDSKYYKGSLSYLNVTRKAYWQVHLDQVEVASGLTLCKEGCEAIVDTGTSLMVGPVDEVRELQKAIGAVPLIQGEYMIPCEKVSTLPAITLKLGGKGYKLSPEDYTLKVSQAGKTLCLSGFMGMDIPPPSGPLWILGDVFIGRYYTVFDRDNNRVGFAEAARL
Protocol: An example of a non-cellular assay that may be used to determine in vitro aspartyl protease inhibitory activity reacts partially purified human brain cathepsin D with a substrate, e.g., porcine renin tetradecapeptide. The resultant reaction mixture is divided into portions and each portion is incubated for a different period of time. After the reaction is stopped, the turnover of substrate in each portion is determined using reverse-phase HPLC. Protease inhibition activity may be calculated based on the rates of substrate turnover. This assay is exemplified in Assay 1, below. Human brain cathepsin D was purified from frozen post-mortem cortex substantially in accordance with the method of Nixon and Morotta, (1984) J. Neurochem. 43:507-516. The cortex material was prepared and applied to a DEAE-Sepharose® column. The flow through fraction was dialyzed against 50mM Tris-HCl, pH 7.5, and applied to concanavalin A Sepharose® and eluted with 50mM Tris, pH 7.5, 0.5M methyl α-D-mannopyranoside. The eluted cathepsin D activity was dialyzed against 25mM Tris, pH 7.5, and stored at -40°C (Con A pool) until use. For each assay, 50 μL of the Con A pool was diluted to 270 μL in 200mM sodium citrate, pH 4.5, 150mM sodium chloride (NaCl), and incubated for 10 minutes at 4°C with 15 μL of compound stock diluted in dimethylsulfoxide (DMSO). The substrate, porcine renin tetradecapeptide ([…] [SEQ ID NO:3], Bachem Bioscience, Inc., Philadelphia, PA), was added to each reaction mixture to yield a final concentration of 44 μM in a total volume of 300 μL. The samples were incubated at 37°C for 0, 10, 20, or 30 minutes, and then boiled for 5 minutes to stop the reaction. The samples were centrifuged in a microcentrifuge for 10 minutes at 14,000 rpm at 4°C. After centrifugation, 200 μL of each reaction was injected onto […] column (Vydac, Hesperia, CA) with a Perkin Elmer ISS 100 autosampler and eluted with a gradient eluent of 0-50% CH3CN in 0.1% CF3CO2H at 2 mL/min. Peptide product peaks were monitored at 220nm with a Perkin Elmer LC 95 detector and integrated with Rainin Dynamax software in order to quantitate activity.

inhibition at 10 µg/mL (Human liver cathepsin D) [%]	IC50 (Human brain cathepsin D) [µM]	Molecule	inhibition at 10 µg/mL (βAP production) [%]	further results
94.8 ± 0.6		CC(C)C[C@H](NC(=O)c1ccc2ccccc2n1)C(=O)N[C@@H](Cc1ccccc1)[C@H](O)Cc1ccccc1C(=O)NC(C)(C)C [Example 20, [1S-(1R*,4R*,5S*)]-N-(1-(2-Methylpropyl)-2-oxo-3-aza-4-phenylmethyl-5-hydroxy-6-(2-(1-t-butylamino-1-oxomethyl)phenyl)hexyl)-quinolin-2-yl carboxamide]	94.8 ± 3.1	
		[1S-(1R*,4R*,5S*)]-N-(1-(Propyl)-2-oxo-3-aza-4-phenylmethyl-5-hydroxy-6-(2-(1-t-butylamino-1-oxomethyl)phenyl)hexyl)-quinolin-2-yl carboxamide [Example 21]		βAP Production Inhibition (βAP production): 78.3 ± 1.5%; Cathepsin D Inhibition (Human liver cathepsin D): 78.3 ± 3.8%
	> 0.25	CC(C)C[C@H](NC(=O)[C@@H](NC(=O)CNC(C)C)C(C)C)[C@@H](O)CC(=O)N[C@@H](C)C(=O)N[C@H](C(=O)O)[C@@H](C)O [Example 46, (CH3)2CH-Gly-Val-Sta-Ala-Thr-OH] (H-[N(iPr)Gly]V[Sta]AT-OH)		
	> 0.1	CC[C@H](C)[C@H](NC(=O)C[C@H](O)[C@H](CC(C)C)NC(=O)CNC(C)C)C(=O)N[C@@H](C)C(=O)N[C@H](C(=O)O)[C@@H](C)O [Example 44, (CH3)2CH-Gly-Sta-Ile-Ala-Thr-OH] (H-[N(iPr)Gly][Sta]IAT-OH)		
12.4 ± 3.7		CC(C)[C@H](NC(=O)c1cnc2ccccc2n1)C(=O)N[C@@H](Cc1ccccc1)[C@H](O)Cc1ccccc1C(=O)NC(C)(C)C [Example 12, [1S-(1R*,4R*,5S*)]-N-(1-Isopropyl-2-oxo-3-aza-4-phenylmethyl-5-hydroxy-6-(2-(1-t-butylamino-1-oxomethyl)phenyl)hexyl)-2-quinoxalinyl acetamide]	12.4 ± 6	
91.4 ± 0.4		CC(C)[C@H](NC(=O)c1ccc2ccccc2c1)C(=O)N[C@@H](Cc1ccccc1)[C@H](O)Cc1ccccc1C(=O)NC(C)(C)C [Example 13]	91.4 ± 3.9	
	> 0.25	CC[C@H](C)[C@H](NC(=O)[C@@H](NC(=O)[C@@H](NC(=O)CNC(C)C)C(C)C)C(C)C)C(=O)N[C@@H](CC(C)C)[C@@H](O)CC(=O)N[C@H](C(=O)O)[C@@H](C)O [Example 47, (CH3)2CH-Gly-Val-Val-Ile-Sta-Thr-OH] (H-[N(iPr)Gly]VVI[Sta]T-OH)		

Molecule	inhibition at 10 µg/mL (Human liver cathepsin D) [%]	IC50 (Human brain cathepsin D) [µM]	inhibition at 10 µg/mL (βAP production) [%]	further results
CC(C)[C@H](NC(=O)OC(C)(C)C)C(=O)N[C@@H](Cc1ccccc1)[C@H](O)Cc1ccccc1C(=O)NC(C)(C)C [Example 23A, [2R-(2R*,3S*,6S*)]-N-t-Butyl-2-[2-hydroxy-3-phenylmethyl-4-aza-5-oxo-6-N(t-butoxycarbonyl)amino-7-methyl]octyl benzamide]	32.5 ± 4.7		32.5 ± 3.3	
